Experimental data: US8142801B2, “Pesticidal compositions and methods of use thereof” (EcoBlend, LLC, priority 2009, dated 2012)

What was measured:
Tick = Tick repellency on skin; type: in vivo; details: on its own
Fire ants = assay: Spray test on fire ants; type: in vivo, Red Imported species
Procedure: The time various compositions take to both knock down (KD) and kill (TM) various pests was determined. As a control, results were compared using sodium lauryl sulfate by itself, and with the various fatty acids.
The tests were conducted for a maximum observation time of 30 minutes, after which time, the test, and all observations, was stopped.
Protocol: Fire ants (Red Imported species) were directly sprayed while traveling on the ground. The average amount of material per area was calculated. The amount of material to kill the Fire Ant was determined.

In the case of `CCCCCCCCCCCCOS(=O)(=O)[O-].[Na+]` [sodium lauryl sulfate], the Repellency to ticks (Tick) is reported as “not observed to be particularly repellent” and the “Amount of aqueous 10% SLS mixture to kill the fire ant” value (Fire ants) is reported as “around 20 ml”.
